“And” between values parts separate entries of the source, which are not always exact repeats. Identical values can stand only once.
Assay: Absolute oral bioavailability of 17-AAG lipid complex formulation in female rats
Assay type: in vivo, Sprague-Dawley rats
Conditions: rat; for Apparent Absolute Bioavailability: oral 50 mg/kg vs intravenous 10 mg/kg
Protocol: Female Sprague-Dawley rats were administered a phospholipid complex formulation of the low melt form of 17-AAG by oral gavage or as intravenous infusion (tail vein). Blood samples were collected prior to dosing and up to 6 hrs post dosing.
% F=[(Oral AUC(0-6h)×I.V. Dose)/(I.V. AUC(0-6h)×Oral Dose)]*100.
Blood samples (n=11) were collected via the jugular vein catheter prior to dosing and up to 6 hrs post dosing. The blood was allowed to clot at room temperature for approximately 20 minutes and then placed on ice until centrifugation at 10,000×G for 10 minutes. Serum was collected into polypropylene tubes and frozen at −80° C. until analysis.

[1] = intravenous 10 mg/kg, individual animal, 10 mg/kg
[2] = intravenous 10 mg/kg, metabolite 17-AG, individual animal, 10 mg/kg
[3] = intravenous 10 mg/kg, metabolite 17-AG, mean n=3
[4] = oral 50 mg/kg, individual animal, 50 mg/kg
[5] = oral 50 mg/kg, metabolite 17-AG, individual animal, 50 mg/kg

C=CCNC1=C2C[C@@H](C)C[C@H](OC)[C@H](O)[C@@H](C)/C=C(\C)[C@H](OC(N)=O)[C@@H](OC)/C=C\C=C(/C)C(=O)NC(=CC1=O)C2=O [Compound 17-AAG, 17-allylamino-17-demethoxygeldanamycin]
17-AAG AUC(0-6) [1]: 172 µg·min/mL and 161 µg·min/mL and 135 µg·min/mL | 17-AAG Cmax [1]: 8700 ng/mL and 8000 ng/mL and 7000 ng/mL | 17-AAG AUC(0-6) (intravenous 10 mg/kg, mean n=3): 156 µg·min/mL | 17-AAG Cmax (intravenous 10 mg/kg, mean n=3): 7900 ng/mL | 17-AG AUC(0-6) [2]: 17 µg·min/mL and 25 µg·min/mL and 37 µg·min/mL | 17-AG Cmax [2]: 300 ng/mL and 200 ng/mL | 17-AG AUC(0-6) [3]: 26 µg·min/mL | 17-AG Cmax [3]: 200 ng/mL | Apparent Absolute Bioavailability (individual animal): 160% and 129% and 39% | Apparent Absolute Bioavailability (mean n=3): 109±63% | 17-AAG mean serum concentration six hours post oral dosing (oral 50 mg/kg, 6 h): 1.6 ± 0.8 µg/mL | 17-AG mean serum concentration six hours post oral dosing (oral 50 mg/kg, 6 h, metabolite 17-AG): 0.6 ± 0.1 µg/mL | 17-AAG AUC(0-6) [4]: 1248 µg·min/mL and 1003 µg·min/mL and 305 µg·min/mL | 17-AAG Cmax [4]: 5700 ng/mL and 4700 ng/mL and 1200 ng/mL | 17-AAG AUC(0-6) (oral 50 mg/kg, mean n=3): 852 µg·min/mL | 17-AAG Cmax (oral 50 mg/kg, mean n=3): 3900 ± 2400 ng/mL | 17-AG AUC(0-6) [5]: 252 µg·min/mL and 238 µg·min/mL and 156 µg·min/mL | 17-AG Cmax [5]: 1200 ng/mL and 900 ng/mL | 17-AG AUC(0-6) (oral 50 mg/kg, metabolite 17-AG, mean n=3): 215 µg·min/mL | 17-AG Cmax (oral 50 mg/kg, metabolite 17-AG, mean n=3, 50 mg/kg): 1000 ng/mL
